Assay results reported in patent publication US8486965B2, “Pyrrolo[2,3-b]pyridine derivative and use thereof for treatment of cancer” (Takeda Pharmaceutical Company Limited, priority 2009, dated 2013).

Test system: Hedgehog signal transduction system (Smo)
Assay: Gli reporter luciferase assay in NIH-3T3/Gli reporter cells stimulated with mouse Shh-N end fragment
Type: cell-based
Conditions: NIH3T3; 1 μM compound; NIH-3T3/Gli reporter cells with mouse Shh-N end fragment culture supernatant, 48 hr; luciferase activity, control without compound as 100; read-out: inhibition rate (%) at 1 μM
Excerpt: Inhibition of the Hedgehog signal transduction system can be measured, for example, by quantifying a decrease in the expression level of a reporter gene connected to the downstream of the Gli binding site based on the fluorescence intensity according to the following Experimental Example 1. Alternatively, it can be measured by quantifying the expression of Gli-1 mRNA in a cell extract by quantitative PCR method and the like. A compound that inhibits Hedgehog signal targets Smo, which can be confirmed, for example, by binding fluorescence-labeled Cyclopamine and a test compound to cells expressing Smo, measuring the fluorescence level of the cell, and comparing the value with that without addition of a test compound to find a decrease.
Gli reporter plasmid was constructed by inserting 8×Gli-binding site and chicken δ-crystalline promoter into the upstream of luc+ of pGL3 (Promega).
prepared in reference to the base sequence described in GenBank accession No.; X02187, and chicken genome DNA (Clontech) as a template. PCR reaction was performed using Pfu Turbo (Stratagene) and following the attached protocol. The obtained 108 bp fragment was digested with restriction enzymes BglII and HindIII, and inserted into BglII-HindIII site of pGL3 to give plasmid pGL3/δ-cry promoter.
As 8× Gli-binding site, a sequence containing eight 9-bp Gli bound consensus sequences (GACCACCCA) described in Yoon et al., J. Biol. Chem., vol. 273, pages 3496-3501 (1998) was prepared from synthetic DNA. That is, two synthetic DNAs,
were heat treated at 95° C. for 2 minutes, and incubated at 37° C. for 1 hr for annealing to give a double stranded DNA of the above-mentioned two synthetic DNAs. The obtained double stranded DNA was digested with restriction enzymes BglII and KpnI, and the obtained DNA fragment was inserted into BglII-KpnI site of pGL3/δ-cry promoter to construct plasmid pGL3/δ-cry promoter, 8× Gli binding site, i.e., Gli reporter plasmid. 2. Construction of Plasmid for Expression of Mouse Shh-N End Fragment
As a material for construction of plasmid for Shh-N end fragment expression, mouse Shh cDNA was cloned at first.
The mouse Shh cDNA was cloned by Nested PCR method using mouse 11-day fetus cDNA (Clontech) as a template. The primer sequence was prepared in reference to the base sequence described in GenBank accession No.; NM_009170.
Using the mouse Shh cDNA sequence obtained as mentioned above as a template, a partial cDNA sequence wherein stop codon (TGA) was added to 3′-terminal of cDNA sequence encoding 1st to 198th amino acid sequence of mouse Shh was obtained by PCR method. As the primer set,
In the manner mentioned above, a plasmid for mouse Shh-N end fragment expression, pcDNA3.1/mShh-N, was constructed.
HEK293 cells were grown in D-MEM medium (Invitrogen) containing 10% fetal bovine serum in a 10 cm dish and pcDNA3.1/mShh-N was introduced into the cells using FuGENE6 (Roche Applied Science). Thereafter, the HEK293 cells were cultured in a carbon dioxide gas incubator at 37° C. for 24 hours, and the medium was exchanged with D-MEM medium (Invitrogen) containing 2% fetal bovine serum. After culturing for 48 hr, culture supernatant containing recombinant type mouse Shh-N end fragment was obtained by filtration using a filter ([…]).
Using D-MEM (Invitrogen) containing 10% fetal bovine serum, expression plasmid pcDNA3:1 and Gli reporter plasmid (pGL3/δ-cry promoter, 8× Gli binding site) produced by the method of Experimental Example 1 were introduced into NIH-3T3 cells grown in a 10 cm dish by the use of FuGENE6 (Roche Applied Science).
After culture for 24 hr, the cells were recovered, suspended in D-MEM medium containing 10% fetal bovine serum and supplemented with Geneticin (Life Technologies Oriental, Inc.) to a final concentration of 500 μg/ml, diluted to 10^4 cells/ml, plated on a 96 well plate, and cultured in a carbon dioxide gas incubator at 37° C. to give Geneticin resistant transformed cell line. […]

| Structure (SMILES) | inhibition at 1 µM [%] |
| --- | --- |
| CCc1nc2c(cc1NC(=O)c1cccc(F)c1)c(OCC(F)(F)F)c(C(=O)NC1CCN(C(=O)CO)CC1)n2C [Example 30, 6-ethyl-5-{[(3-fluorophenyl)carbonyl]amino}-N-[1-(hydroxyacetyl)piperidin-4-yl]-1-methyl-3-(2,2,2-trifluoroethoxy)-1H-pyrrolo[2,3-b]pyridine-2-carboxamide] | 97 |
| CCc1nc2c(nc1NC(=O)c1ccc(F)cc1)c(OC(C)C)c(C(=O)NC1CCN(C(=O)CO)CC1)n2C [Example 162, 3-ethyl-2-{[(4-fluorophenyl)carbonyl]amino}-N-[1-(hydroxyacetyl)piperidin-4-yl]-5-methyl-7-(1-methylethoxy)-5H-pyrrolo[2,3-b]pyrazine-6-carboxamide] | 100 |
| CCc1nc2c(cc1NC(=O)c1ccccc1)c(OCC(F)(F)F)c(C(=O)NC1CC[S+]([O-])CC1)n2C (centres unmarked) [Example 41, 6-ethyl-1-methyl-N-(1-oxidotetrahydro-2H-thiopyran-4-yl)-5-[(phenylcarbonyl)amino]-3-(2,2,2-trifluoroethoxy)-1H-pyrrolo[2,3-b]pyridine-2-carboxamide] | 96 |
| CCc1cc2sc(C(=O)NC3CCN(C(=O)CO)CC3)c(OC(C)C)c2cc1NC(=O)c1ccc(F)cc1 [Example 154, 6-ethyl-5-{[(4-fluorophenyl)carbonyl]amino}-N-[1-(hydroxyacetyl)piperidin-4-yl]-3-(1-methylethoxy)-1-benzothiophene-2-carboxamide] | 97 |
| CCc1cc2c(nc1NC(=O)c1ccc(F)cc1)c(OC(C)C)c(C(=O)NC1CCN(C(=O)CO)CC1)n2C [Example 167, 6-ethyl-5-{[(4-fluorophenyl)carbonyl]amino}-N-[1-(hydroxyacetyl)piperidin-4-yl]-1-methyl-3-(1-methylethoxy)-1H-pyrrolo[3,2-b]pyridine-2-carboxamide] | 99 |
| CCc1nc2c(cc1NC(=O)c1ccc(F)cc1)c(OC(C)C)c(C(=O)NC1CCN(C(=O)CO)CC1)n2C [Example 33, 6-ethyl-5-{[(4-fluorophenyl)carbonyl]amino}-N-[1-(hydroxyacetyl)piperidin-4-yl]-1-methyl-3-(1-methylethoxy)-1H-pyrrolo[2,3-b]pyridine-2-carboxamide] | 95 |
| CCc1nc2c(cc1NC(=O)c1ccccc1)c(OC(C)C)c(C(=O)NCCS(=O)(=O)CCOC)n2C [Example 60, 6-ethyl-N-{2-[(2-methoxyethyl)sulfonyl]ethyl}-1-methyl-3-(1-methylethoxy)-5-[(phenylcarbonyl)amino]-1H-pyrrolo[2,3-b]pyridine-2-carboxamide] | 95 |
| Cc1nc2c(nc1NC(=O)c1ccccc1)c(OC(C)C)c(C(=O)NC1CCN(C(=O)CO)CC1)n2C [Example 164, N-[1-(hydroxyacetyl)piperidin-4-yl]-3,5-dimethyl-7-(1-methylethoxy)-2-[(phenylcarbonyl)amino]-5H-pyrrolo[2,3-b]pyrazine-6-carboxamide] | 99 |
| CCc1nc2c(cc1NC(=O)c1ccccc1)c(OCC(F)(F)F)c(C(=O)NC1CCS(=O)(=O)CC1)n2C [Example 40, N-(1,1-dioxidotetrahydro-2H-thiopyran-4-yl)-6-ethyl-1-methyl-5-[(phenylcarbonyl)amino]-3-(2,2,2-trifluoroethoxy)-1H-pyrrolo[2,3-b]pyridine-2-carboxamide] | 97 |
| CCc1nc2c(cc1NC(=O)c1cncs1)c(OCC(F)(F)F)c(C(=O)NC1CCN(C(=O)CO)CC1)n2C [Example 53, 6-ethyl-N-[1-(hydroxyacetyl)piperidin-4-yl]-1-methyl-5-[(1,3-thiazol-5-ylcarbonyl)amino]-3-(2,2,2-trifluoroethoxy)-1H-pyrrolo[2,3-b]pyridine-2-carboxamide] | 95 |
| CCc1nc2c(cc1NC(=O)c1ccsc1)c(OCC(F)(F)F)c(C(=O)NC1CCN(C(=O)CO)CC1)n2C [Example 50, 6-ethyl-N-[1-(hydroxyacetyl)piperidin-4-yl]-1-methyl-5-[(thiophen-3-ylcarbonyl)amino]-3-(2,2,2-trifluoroethoxy)-1H-pyrrolo[2,3-b]pyridine-2-carboxamide] | 94 |
| CCc1cc2c(nc1-c1ccccc1)c(OC(C)C)c(C(=O)NC1CCN(C(=O)CO)CC1)n2C [Example 131, 6-ethyl-N-[1-(hydroxyacetyl)piperidin-4-yl]-1-methyl-3-(1-methylethoxy)-5-phenyl-1H-pyrrolo[3,2-b]pyridine-2-carboxamide] | 82 |
| CCc1cc2c(cc1NC(=O)c1ccccc1)c(OCC(F)(F)F)c(C(=O)NC1CCN(C(=O)CO)CC1)n2C [Example 146, 6-ethyl-N-[1-(hydroxyacetyl)piperidin-4-yl]-1-methyl-5-[(phenylcarbonyl)amino]-3-(2,2,2-trifluoroethoxy)-1H-indole-2-carboxamide] | 90 |
| Cc1cc2sc(C(=O)NC3CCN(C(=O)CO)CC3)c(OCC(F)(F)F)c2cc1NC(=O)c1ccccc1 [Example 68, N-[1-(hydroxyacetyl)piperidin-4-yl]-6-methyl-5-[(phenylcarbonyl)amino]-3-(2,2,2-trifluoroethoxy)-1-benzothiophene-2-carboxamide] | 96 |
| CCc1nc2c(cc1CC(=O)c1ccccc1)c(OCC(F)(F)F)c(C(=O)NC1CCN(C(=O)CO)CC1)n2C [Example 9, 6-ethyl-N-[1-(hydroxyacetyl)piperidin-4-yl]-1-methyl-5-(2-oxo-2-phenylethyl)-3-(2,2,2-trifluoroethoxy)-1H-pyrrolo[2,3-b]pyridine-2-carboxamide] | 98 |
| CCc1cc2c(cc1NC(=O)c1ccsc1)c(OCC(F)(F)F)c(C(=O)NC1CCN(C(=O)CO)CC1)n2C [Example 147, 6-ethyl-N-[1-(hydroxyacetyl)piperidin-4-yl]-1-methyl-5-[(thiophen-3-ylcarbonyl)amino]-3-(2,2,2-trifluoroethoxy)-1H-indole-2-carboxamide] | 91 |
| CCc1cc2c(cc1NC(=O)c1ccsc1)c(OC(C)C)c(C(=O)NC1CCN(C(=O)CO)CC1)n2C [Example 148, 6-ethyl-N-[1-(hydroxyacetyl)piperidin-4-yl]-1-methyl-3-(1-methylethoxy)-5-[(thiophen-3-ylcarbonyl)amino]-1H-indole-2-carboxamide] | 98 |
| Cc1nc2c(cc1NC(=O)c1ccccc1)c(OCC(F)(F)F)c(C(=O)NC1CCN(C(=O)CO)CC1)n2C [Example 47, N-[1-(hydroxyacetyl)piperidin-4-yl]-1,6-dimethyl-5-[(phenylcarbonyl)amino]-3-(2,2,2-trifluoroethoxy)-1H-pyrrolo[2,3-b]pyridine-2-carboxamide] | 97 |
| CCc1cc2sc(C(=O)NC3CCN(C(=O)CO)CC3)c(OC(C)C)c2cc1NC(=O)c1ccccc1 [Example 151, 6-ethyl-N-[1-(hydroxyacetyl)piperidin-4-yl]-3-(1-methylethoxy)-5-[(phenylcarbonyl)amino]-1-benzothiophene-2-carboxamide] | 98 |
| CCc1cc2c(nc1NC(=O)c1ccccc1)c(OCC(F)(F)F)c(C(=O)NC1CCN(C(=O)CO)CC1)n2C [Example 127, 6-ethyl-N-[1-(hydroxyacetyl)piperidin-4-yl]-1-methyl-5-[(phenylcarbonyl)amino]-3-(2,2,2-trifluoroethoxy)-1H-pyrrolo[3,2-b]pyridine-2-carboxamide] | 96 |
